Measured values as given in patent US20260374766A1, “METHODS FOR TREATING CANCER” (Antares Therapeutics, Inc., priority 2022, published 2026).

How the values were obtained:
[1] = molecular target: T1, p53 Y220C mutant protein (amino acid residues 94-293) (Homo sapiens, UniProt P04637, Y220C); assay: Surface Plasmon Resonance (SPR) assay, Kd_kinetic; format: binding; conditions: SPR; p53 Y220C; read-out: SPR P53 Y220C KD kinetic
T1 construct: p53 Y220C mutant protein (amino acid residues 94-293)
T1 sequence (P04637 94-293, stated change not applied): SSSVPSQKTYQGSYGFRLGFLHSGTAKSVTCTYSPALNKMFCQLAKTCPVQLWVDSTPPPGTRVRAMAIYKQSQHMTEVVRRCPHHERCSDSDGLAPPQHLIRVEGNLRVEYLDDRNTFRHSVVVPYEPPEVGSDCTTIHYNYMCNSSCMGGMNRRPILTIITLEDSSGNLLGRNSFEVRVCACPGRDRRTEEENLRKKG
Outline: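 Biacore 8K SPR; 16 or 20 °C; Tris 50 mM pH 7.5, NaCl 100 mM, DTT 1 mM, Brij35 0.01%, Tween-20 0.05%, DMSO 1%. Kd_kinetic by 1:1 fit.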

[2] = molecular target: p53 Y220C (Homo sapiens, UniProt P04637, Y220C); assay: Luciferase Reporter Assay (Luc), p53 response element, NClH1299 cells with inducible p53 Y220C; format: cell-based; conditions: luciferase reporter, NClH1299 inducible p53 Y220C, 6 hour; for AC50: read-out: Luc P53 Y220C AC50
Outline: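 Luminescence readout (One-Glo, 5 min shaking at RT, read at once) after 6 h compound exposure; cells pre-induced 24 h with 0.5 ug/mL doxycycline, 5,000/well.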

[3] = tested on: NUGC3 p53 Y220C; assay: Cell Proliferation Assay (CellTiter-Glo, CTG), NUGC3 p53 Y220C; format: cell-based; conditions: Homo sapiens, NUGC-3, 120 h, NUGC3 cells, 5 days, CellTiter-Glo
Outline: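 Tet-One inducible p53 Y220C or R273H constructs were stably introduced into NCI-H1299 by lentiviral transduction; NUGC3 was used as is. Cells (250-500 per well) were exposed to compound for 5 days, then CellTiter-Glo was added for 10 min at room temperature and IC50 was calculated from luminescence.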

[4] = tested on: H1299 p53 Y220C; assay: Cell Proliferation Assay (CellTiter-Glo, CTG), H1299 p53 Y220C (NClH1299-inducible p53 Y220C); format: cell-based; conditions: Homo sapiens, NCI-H1299, 120 h, NClH1299-inducible p53 Y220C cells, 5 days, CellTiter-Glo
Outline: (§1)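 NClH1299 lines stably transduced with Tet-inducible p53 Y220C or R273H, plus NUGC3, were treated with compound for 5 days at 250-500 cells/well. IC50 derived from CellTiter-Glo luminescent signal after 10 min room-temperature incubation.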

[5] = tested on: H1299 p53 R273H; assay: Cell Proliferation Assay (CellTiter-Glo, CTG), H1299 p53 R273H (NClH1299-inducible p53 R273H); format: cell-based; conditions: Homo sapiens, NCI-H1299, 120 h, NClH1299-inducible p53 R273H cells, 5 days, CellTiter-Glo
Outline: as §1

Structure (SMILES)	Kd [1] [nM]	AC50 [2] [nM]	Emax [2] [%]	IC50 [3] [nM]	IC50 [4] [nM]	IC50 [5] [nM]
O=C(NCC1COC1)c1ccc(NCC#Cc2cc3c(N[C@@H]4CCNC[C@@H]4F)cccn3c2SC(F)(F)F)cc1 [Example 364]	< 10	< 750	70 to 80	< 750	< 750	< 5000
O=C(NC[C@H]1CCO1)c1ccc(NCC#Cc2cc3c(N[C@@H]4CCNC[C@@H]4F)cccn3c2SC(F)(F)F)cc1 [Example 365]	< 10	< 750	80 to 90	< 750	< 750	< 5000
O=C(NCC1(O)CC1)c1ccc(NCC#Cc2cc3c(N[C@@H]4CCNC[C@@H]4F)cccn3c2SC(F)(F)F)cc1 [Example 367]	< 10	< 750	> 90	< 750	< 750	8000 to 10000
O=C(NC[C@@H]1CCO1)c1ccc(NCC#Cc2cc3c(N[C@@H]4CCNC[C@@H]4F)cccn3c2SC(F)(F)F)cc1 [Example 368]	< 10	< 750	80 to 90	< 750	< 750	5000 to 8000
O=C(NC[C@H]1COCCO1)c1ccc(NCC#Cc2cc3c(N[C@@H]4CCNC[C@@H]4F)cccn3c2SC(F)(F)F)cc1 [Example 369]	< 10	< 750	> 90	< 750	< 750	5000 to 8000
COc1cc(S(C)(=O)=O)ccc1NCC#Cc1cc2c(N[C@@H]3CCNC[C@@H]3F)cccn2c1SC(F)(F)F [Example 370]	< 10	< 750	> 90	< 750	< 750	5000 to 8000
C[C@@H](O)[C@@H](C)NC(=O)c1ccc(NCC#Cc2cc3c(N[C@@H]4CCN(C)C[C@@H]4F)cccn3c2SC(F)(F)F)cc1 [Example 371]	< 10	< 750	> 90	< 750	< 750	8000 to 10000
CC(C)(O)CNC(O)c1ccc(NCC#Cc2cc3c(N[C@@H]4CCNC[C@@H]4F)cccn3c2SC(F)(F)F)cc1 (stereo partly drawn) [Example 372]	< 10	< 750	> 90	< 750	< 750	8000 to 10000
O=C(N[C@H]1C[C@H](O)C1)c1ccc(NCC#Cc2cc3c(N[C@@H]4CCNC[C@@H]4F)cccn3c2SC(F)(F)F)cc1 [Example 373]	< 10	< 750	80 to 90	< 750	< 750	≥ 10000
COc1cc(C(=O)NCC(C)(C)O)ccc1NCC#Cc1cc2c(N[C@@H]3CCN(C)C[C@@H]3F)cccn2c1SC(F)(F)F [Example 375]	< 10	< 750	> 90	< 750	< 750	8000 to 10000
C[C@H](O)[C@@H](C)NC(=O)c1ccc(NCC#Cc2cc3c(N[C@@H]4CCN(C)C[C@@H]4F)cccn3c2SC(F)(F)F)cc1 [Example 376]	< 10	< 750	> 90	< 750	< 750	≥ 10000
COc1cc(C(=O)N2CC(C)(O)C2)ccc1NCC#Cc1cc2c(N[C@@H]3CCN(C)C[C@@H]3F)cccn2c1SC(F)(F)F [Example 377]	< 10	< 750	> 90	< 750	< 750	5000 to 8000
COc1cc(P(C)(C)=O)ccc1NCC#Cc1cn2c(N[C@@H]3CCN(C)C[C@@H]3F)cccc2c1SC(F)(F)F [Example 378]	< 10	< 750	80 to 90	< 750	< 750	≥ 10000
COc1cc(P(C)(C)=O)ccc1NCC#Cc1cc2c(N[C@@H]3CCNC[C@@H]3F)cccn2c1SC(F)(F)F [Example 379]	< 10	< 750	> 90	< 750	< 750	≥ 10000
